The values below are quoted from earlier work in patent US20230165822A1, “URINARY ALKALIZING MEDICINAL AND/OR PHARMACEUTICAL COMPOSITION FOR THE ORAL TREATMENT OF INTERSTITIAL CYSTITIS / BLADDER PAIN SYNDROME (IC/BPS) AND FORMULATION THEREOF” (priority 2020, published 2023).

The conditions of the data set: in vivo.

With `CC(=O)/N=c1/sc(S(N)(=O)=O)nn1C` [Methazolamide], the “share reaching the bladder” value was “only a fraction”.
